Structures can show the parent of a compound that is named as a salt. Where two headings read alike, the source gives them in different places.
How the values were obtained:
[1] = target: T1, Human vitronectin receptor (αvβ3) (Homo sapiens, UniProt P05106+P06756); experiment: Vitronectin adhesion assay (solid phase receptor assay, competition with biotinylated vitronectin); format: binding
T1 construct: Human vitronectin receptor (αvβ3) was purified from human placenta; from tissue; host or cells: human placenta

[2] = target: T2, Human fibrinogen receptor (αIIbβ3) (Homo sapiens, UniProt P05106+P08514); experiment: Purified IIb/IIIa receptor assay (solid phase receptor assay, competition with biotinylated vitronectin); format: binding; conditions: purified receptor from outdated platelets; 1 nM biotinylated vitronectin; highest concentration tested 1.0 x 10^-4 M
T2 construct: Human fibrinogen receptor (αIIbβ3) was purified from outdated platelets; from tissue; host or cells: outdated (human) platelets
How it was run: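 Platelet-derived αIIbβ3 coated at 1.0 µg/mL overnight at 4 °C in TBS with 1 mM Ca, Mg, Mn, pH 7.4, BSA-blocked; compounds competed with 1 nM biotinylated vitronectin (final; top compound 1.0 × 10^-4 M) for 2 h at room temperature. Bound ligand detected via HRP anti-biotin, A450; normalized to maximum binding, four-parameter fit.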

[3] = purified receptor from human placenta; 1 nM biotinylated vitronectin; highest concentration tested 1.0 x 10^-4 M; read-out: AvB3 IC50
[4] = read-out: AvB3 IC50; purified receptor from human placenta; 1 nM biotinylated vitronectin; highest concentration tested 1.0 x 10^-4 M

Compound	IC50 [1, 3]	IC50 [2]	IC50 [1, 4]
O=C(Nc1ccc(CC(NS(=O)(=O)c2ccccc2)C(=O)O)cc1)c1cccc(NC2=NCCN2)c1 (stereo not drawn) [Example 112, 4-[[[3-[(4,5-dihydro-1H-imidazol-2-yl)amino]phenyl]-carbonyl]amino-N-(phenylsulfonyl)phenylalanine, trifluoroacetate salt]	0.3 nM	13 nM	
COc1cc(NC(=O)c2cccc(NC3=NCCCN3)c2)ccc1C[C@H](NC(=O)OC(C)C)C(=O)O [Example 114, 2-methoxy-N-[(1-methylethoxy)carbonyl]-4-[[[3-[(1,4,5,6-tetrahydropyrimidin-2-yl)amino]-phenyl]-carbonyl]amino]phenylalanine, trifluoroacetate salt]	0.2 nM	1000 nM	
COc1cc(NC(=O)c2cccc(NC(=N)N)c2)ccc1CCC(=O)O [Example 115, 4-[[[3-(aminoiminomethyl)amino]phenyl]-carbonyl]amino]-2-methoxybenzenepropanoic acid, trifluoroacetate salt]	24 nM	173 nM	
COc1cc(NC(=O)c2cccc(NC3=NCCCN3)c2)ccc1CCC(=O)O [Example 116, 2-methoxy-4-[[[3-[(1,4,5,6-tetrahydropyrimidin-2-yl)amino]phenyl]carbonyl]amino]benzenepropanoic acid, trifluoroacetate salt]	6 nM	3180 nM	
CN(C)c1cc(NC(=O)c2cccc(NC(=N)N)c2)ccc1CCC(=O)O [Example 117, 4-[[[3-[(aminoiminomethyl)amino]phenyl]carbonyl]-amino]-2-(dimethylamino)benzenepropanoic acid, bis(trifluoroacetate) salt]	129 nM	452 nM	
COc1cc(NC(=O)c2cccc(NC3=NCCCN3)c2)ccc1OCC(=O)O [Example 119, [2-methoxy-4-[[[3-[(1,4,5,6-tetrahydropyrimidin-2-yl]-amino]phenyl]carbonyl]amino]phenoxy]acetic acid, trifluoroacetate salt]	0.4 nM	772 nM	
N=C(N)Nc1cccc(C(=O)Nc2ccc(CC(C(=O)O)C(=O)O)cc2)c1 [Example 120, [[4-[[[3-[(aminoiminomethyl)amino]phenyl]carbonyl]-amino]phenyl]methyl]-1,3-propanoic acid, trifluoroacetic salt]	14 nM	384 nM	
Cc1cc(C)c(S(=O)(=O)NC(Cc2ccc(NC(=O)c3cccc(NC(=N)N)c3)cc2)C(=O)O)c(C)c1 (stereo not drawn) [Example 121, trifluoroacetate salt]		2 nM	1 nM
N=C(N)Nc1cccc(C(=O)Nc2ccc(CC(NS(=O)(=O)c3cc(Cl)cc(Cl)c3)C(=O)O)cc2)c1 (stereo not drawn) [Example 122, [4-[[[3-[(aminoiminomethyl)amino]phenyl]carbonyl]-amino]-N-[(3,5-dichlorophenyl)sulfonyl]phenyl-alanine, trifluoroacetate salt]	7 nM	50 nM	
N=C(N)Nc1cccc(C(=O)Nc2ccc(CC(NC(=O)N3CCOCC3)C(=O)O)cc2)c1 (stereo not drawn) [Example 125, 4-[[[3-[(aminoiminomethyl)amino]phenyl]carbonyl]-amino]-N-[(4-morpholinyl)carbonyl]phenylalanine, bis(trifluoroacetate) salt, monohydrate]	7 nM	260 nM	
N=C(N)Nc1cccc(C(=O)Nc2ccc(CC(NC(=O)N3CCCCC3)C(=O)O)cc2)c1 (stereo not drawn) [Example 126, 4-[[[3-[(aminoiminomethyl)amino]phenyl]carbonyl]-amino]-N-[(1-pipridinyl)carbonyl]phenyl-alanine, trifluoroacetate salt]	2 nM	36 nM	
CC(C)OC(=O)NC(Cc1ccc(NC(=O)c2cccc(NC(=N)N)c2)c(Cl)c1)C(=O)O (stereo not drawn) [Example 127, trifluoroacetate salt]		22 nM	0.6 nM
